Data reported in US20250170154A1 (GreenStone Biosciences, Inc., priority 2023, published 2025).

Tests used:
[1] = Intestinal stability, rat intestinal S9; format: in vitro ADME
Experimental: The stability of compounds 1 and 2, and the control compound 7-hydroxycoumarin, were measured using human, rat, and mouse intestinal S9 fractions (Xenotech). Test compound working solutions were prepared by diluting 5 μL of 10 mM stock solutions in DMSO with 495 μL AN. S9 solutions were prepared by diluting the obtained S9 solutions to 1.0 mg/mL in 100 mM potassium phosphate buffer at pH 7.4 containing 10 mM D-saccharic acid-1,4-lactone. An Apricot automation workstation was used to add 100 μL/well of S9 solution to all reaction plates (Blank, T0, T5, T15, T30, T45, T60 and NCF60); 2 μL/well of compound working solutions were added to all 96-well reaction plates except the blank (T0, T5, T15, T30, T45, T60, and NCF60); 600 μL/well of stop solution (4° C. ACN containing 200 ng/mL tolbutamide and 200 ng/mL labetalol as internal standards) was added to the T0 reaction plate; all plates were pre-incubated at 37° C. for 10 minutes; a cofactor regenerating system (98 μL/well) was added, excluding the NCF60 plate which instead received 98 μL/well of 100 mM potassium phosphate buffer. All plates were then incubated at 37° C. To terminate reactions, 600 μL/well of stop solution was applied at specific end time points. After sealing and a 10-minute shaking, plates were centrifuged at 4000 rpm and 4° C. for 20 minutes. Concurrently, 300 μL/well of HPLC grade water was loaded onto eight new 96-well bioanalysis plates. Post-centrifugation, 100 μL supernatant from each reaction plate was transferred to its corresponding bioanalysis plate, shaken for 10 minutes, and then subjected to LC-MS/MS analysis (Shimadzu LC-40D LC system coupled to a Sciex Qtrap 6500 Plus mass spectrometer, using both positive and negative ion modes).

[2] = test system: mice with cerulein-induced acute edematous pancreatitis; experiment: Cerulein model of acute edematous pancreatitis; format: in vivo, mouse; details: 100 mg/Kg by gavage 30 minutes after first and fourth cerulein injections; initial findings
Experimental: Using the cerulein model, acute edematous pancreatitis was induced in two test groups of mice by eight hourly intraperitoneal injections of 50 μg/Kg cerulein, with control group mice receiving injections of physiological saline. Compound 2, at 100 mg/Kg, was administered to one of the cerulein groups by gavage 30 minutes after the first and fourth cerulein injections. Mice were sacrificed one hour after the last injection and tissues were collected for histological analysis. […] Recurrent acute pancreatitis (RAP) and chronic pancreatitis (CP) were induced by repetitive cerulein injections every third day over a span of 14 days (RAP) or 6 weeks (CP). Compound 2 was administered daily at 50 mg/Kg on the last 10 consecutive days for RAP and at 100 mg/Kg on the last 4 weeks for CP, with vehicle controls. Mice were sacrificed 1 day after the last cerulein injection and tissues were collected for histological analysis. In the CP model, the cerulein injections induced extensive acinar cell damage.

[3] = Pharmacokinetics in the rat, solid form (powder in mini-capsules); format: in vivo; details: rat, in vivo
mdx mice = experiment: mdx mice, blood cytokine analysis; format: in vivo, mouse; details: 20 mg/Kg/day by gavage, four-month-old mdx mice
Excerpt: Dis., 21, 579-589 (2011), “Duchenne muscular dystrophy (DMD) is the most common lethal X-linked recessive disorder, affecting 1 in 3500 live male births. DMD children show early symptoms of muscle degeneration, frequently develop contractures, and lose the ability to walk by 13 years of age. With disease. progression, most patients succumb to death from respiratory failure and cardiac dysfunction in early adulthood. The primary cause of this disease stems from the lack of the protein dystrophin, which is essential for the structural and functional integrity of muscle membrane. Dystrophin absence results in membrane damage, allowing massive infiltration of immune cells, chronic inflammation, necrosis, and severe muscle degeneration . . . . […] The genistein phosphate derivatives of this invention are therefore expected to be useful for the treatment of subjects with Duchenne muscular dystrophy.

Dp16 mice = experiment: Dp16 mouse model of Down syndrome challenged with poly(I:C); format: in vivo
Excerpt: Waugh et al., “Triplication of the interferon receptor locus contributes to hallmarks of Down syndrome in a mouse model”, Nat. Genet., 55, 1034-1047 (2023), note that the B6.129S7-Dp(16Lipi-Zbtb21)1Yey/J mouse model of DS, sometimes referred to as the Dp16 mouse, carries a segmental duplication of mouse chromosome 16 causing triplication of ˜120 protein-coding genes orthologous to those on human chromosome 21, including the Ifnr cluster; and that Dp16 mice display key phenotypes of DS including hyperactive IFN signaling, a dysregulated antiviral response, increased prevalence of heart defects, developmental delays, cognitive impairments and craniofacial anomalies. The TLR3 agonist polyinosinic-polycytidylic acid, poly(I:C), is an innate immune stimulus known to trigger an IFN response. Three groups of Dp16 mice were dosed from day ˜7 through 10 by gavage at 10 mg/Kg, twice/day for the first 5 days and once/day thereafter, with vehicle (2 groups) or compound 2 in vehicle (1 group), and one of the vehicle groups and the compound 2 group were dosed by injection with poly(I:C) on day 7, while the other vehicle group was given a sham injection. Treatment with compound 2 ameliorated the increased expressions of cytokines, IFNα and […], TNF-α, IL-2, -5, -6, -10, and -12P70, and attenuated the inflammatory response, including ameliorating the skin thickening, induced by Poly(I:C) in these Dp16 mice. Transcriptome analysis of liver samples identified gene sets substantially dysregulated in the Dp16 mice and attenuated by treatment with compound 2; including signatures of increased cell proliferation (E2F targets and G2/M checkpoint), increased JAK/STAT and interferon signaling, and decreased fatty acid metabolism. The genistein phosphate derivatives of this invention are therefore expected to be useful for the treatment of subjects with Down syndrome.

O=c1c(-c2ccc(O)cc2)coc2cc(OCOP(=O)(O)O)cc(O)c12 [Compound 2, ((5-Hydroxy-3-(4-hydroxyphenyl)-4-oxo-4H-chromen-7-yl)oxy)methyl dihydrogen phosphate]
normalized control factor remaining [1]: 68.6%
half-life at 1 µM ([1]; intestinal S9 fraction, pH 7.4): 48.3 min
microsomal CLint at 1 µM ([1]; intestinal S9 fraction, pH 7.4, read-out: intrinsic clearance rate): 28.7 µL/min/mg
acute edematous pancreatitis marked by necrosis, inflammation and edema in the pancreas (histology) [2]: efficacious in reversing
half-life ([3]; male, SD, po): ~120 min
Tmax ([3]; male, SD, po, 100 mg/kg): ~10 min
decline of plasma concentration of dosed compound ([3]; 100 mg/kg): slower rapid decline in concentration than for solution dosing
Leptin in blood (mdx mice): significantly reduced
blood cytokines BAFF, BTC, CCL7, CCL11, CSF3, CXCL10, IL-1α, IL-1β, IL-5, IL-10, IL-18, IL-19, IL-2RA, IL-7RA, LIF, MIP-10, MIP2, TNF-α, VEGF (mdx mice): appeared to be reduced
inflammatory response induced by Poly(I:C) (Dp16 mice; 10 mg/Kg by gavage): attenuated
skin thickening induced by Poly(I:C) (Dp16 mice; 10 mg/Kg by gavage): ameliorating
increased expressions of cytokines, IFNα and […], TNF-α, IL-2, -5, -6, -10, and -12P70 (Dp16 mice; 10 mg/Kg by gavage, twice/day first 5 days then once/day, poly(I:C) injection): ameliorated
dysregulated liver gene sets (cell proliferation, JAK/STAT and interferon signaling, fatty acid metabolism) (Dp16 mice; transcriptome analysis of liver samples): attenuated
